Source: US20060052289A1, “Use of somatostatin analogs in sleep apnea” (priority 2003, published 2006)

Key:
[1] = test system: patients with predominantly obstructive sleep apnea; experiment: Clinical study in obstructive sleep apnea; format: in vivo, human; settings: s.c. 100-600 μg, 2 months
Experimental: Obstructive Sleep Apnea: 10 patients with predominantly obstructive sleep apnea are treated with Compound A for 2 months. Sleep recordings, blood gases evaluation and endocrinological controls are performed before, on the first night and at 2 months of therapy. In this study, the compounds of the invention, e.g. Compound A, reduce the number of obstructive sleep apnea episodes when administered s.c. at a dose of 100-600 μg.

[2] = Tolerability at dosages required for use; format: in vivo; settings: free form or pharmaceutically acceptable salt form
[3] = test system: patients with central sleep apnea; experiment: Clinical study in central sleep apnea; format: in vivo, human; settings: s.c. 100-600 μg, 2 months
Experimental: Central Sleep Apnea: 10 patients with central sleep apnea associated with high ventilatory responses to carbon dioxide, are treated with a compound of the invention for 2 months. Sleep recordings, ventilatory control studies (blood gases) and endocrinological controls are performed before, on the first night, at 2 weeks and at 2 months of therapy. In this study, the compounds of the invention, e.g. Compound A, reduce the abnormal high ventilatory responses and the number of central sleep apnea episodes, when administered s.c. at a dose of 100-600 μg.

## cyclo[{4-(NH2—C2H4—NH—CO—O—)Pro}-Phg-DTrp-Lys-Tyr(4-Bzl)-Phe] [Compound A]
[1]
  number of obstructive sleep apnea episodes: reduce
[2]
  tolerability: well tolerated
[3]
  abnormal high ventilatory responses: reduce
  number of central sleep apnea episodes: reduce
